Columns and labels:
[1] = biological target: Type 1 fimbrin D-mannose specific adhesin (Escherichia coli K-12, UniProt P08191); experiment: Binding affinity to Escherichia coli full-length FimH by competitive fluorescence polarization assay
CD209 antigen = biological target: T1, CD209 antigen (Homo sapiens, UniProt Q9NNX6); experiment: Binding affinity to human DC-SIGN by SPR analysis
T1 sequence (Q9NNX6 whole entry): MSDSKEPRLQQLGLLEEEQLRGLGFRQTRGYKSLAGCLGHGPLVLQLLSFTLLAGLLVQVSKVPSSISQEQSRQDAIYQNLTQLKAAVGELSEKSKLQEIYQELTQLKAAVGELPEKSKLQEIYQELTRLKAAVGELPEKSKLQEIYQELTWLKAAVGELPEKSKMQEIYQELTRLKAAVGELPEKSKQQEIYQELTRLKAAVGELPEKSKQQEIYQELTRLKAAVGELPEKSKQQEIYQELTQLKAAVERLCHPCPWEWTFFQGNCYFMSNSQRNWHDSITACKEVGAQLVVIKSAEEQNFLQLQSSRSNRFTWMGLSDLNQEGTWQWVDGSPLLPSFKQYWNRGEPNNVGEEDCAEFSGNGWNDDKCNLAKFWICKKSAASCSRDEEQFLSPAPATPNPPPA

Sequence of Type 1 fimbrin D-mannose specific adhesin (P08191 whole entry): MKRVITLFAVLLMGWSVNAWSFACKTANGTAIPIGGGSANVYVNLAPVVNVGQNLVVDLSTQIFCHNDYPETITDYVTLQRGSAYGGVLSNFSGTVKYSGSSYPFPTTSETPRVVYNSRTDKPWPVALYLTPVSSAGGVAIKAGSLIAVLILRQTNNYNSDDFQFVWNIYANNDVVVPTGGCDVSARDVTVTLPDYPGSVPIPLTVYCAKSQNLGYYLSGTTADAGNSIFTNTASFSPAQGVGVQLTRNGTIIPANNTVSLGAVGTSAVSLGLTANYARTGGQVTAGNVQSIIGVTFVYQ

IC50 (CD209 antigen) [µM] | SMILES | Kd [1] [µM]
– | N#Cc1c(F)c(F)c(-c2ccc(O[C@H]3O[C@H](CO)[C@@H](O)[C@H](O)[C@@H]3O)c(Cl)c2)c(F)c1F | 0.0221
– | OC[C@H]1O[C@H](Oc2ccc(-c3ccccc3)cc2)[C@@H](O)[C@@H](O)[C@@H]1O | 1.1
254 | [N-]=[N+]=NCCO[C@H]1C[C@H](C(=O)OCc2ccc(CN)cc2)[C@@H](C(=O)OCc2ccc(CN)cc2)C[C@@H]1O[C@H]1O[C@H](CN)[C@@H](O)[C@H](O)[C@@H]1O | –
481 | COC(=O)[C@H]1C[C@H](OCCN=[N+]=[N-])[C@@H](O[C@H]2O[C@H](CN)[C@@H](O)[C@H](O)[C@@H]2O)C[C@@H]1C(=O)OC | –

Reference: ChEMBL document CHEMBL4376801, “Glycans in drug discovery” (Medchemcomm, 2019)
